“And” between values parts separate entries of the source, which are not always exact repeats. Equal values may be shown once.
System: A498 complex spheroids with HUVEC/MSC, growth
Assay: Anticancer human tumor A498 cell line growth inhibition [AhR];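 also: seven day exposure starting three days after spheroid seeding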;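 as to viability, T/C: luminescence signal used as a surrogate for viable cells; luminescence viability scaled so 100% equals DMSO vehicle wells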
Conditions: for viability, T/C: stronger effect = lower value
In short: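 Agents were dosed in half-log steps down from roughly clinical Cmax, or from 10 microM where Cmax was unknown, alone and with AhR antagonists. Read-out: percent test/control growth of tumor spheroids containing HUVEC and MSC stromal cells.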

[1] = curve of first compound, second compound 0.1 µM
[2] = curve of first compound, second compound 0.316 µM
[3] = curve of first compound, second compound 1 µM
[4] = curve of first compound, second compound 3.16 µM
[5] = curve of first compound, second compound 10 µM
[6] = second compound 0.1 µM, first compound 0.00316 µM
[7] = second compound 0.1 µM, first compound 0.01 µM
[8] = second compound 0.1 µM, first compound 0.0316 µM
[9] = second compound 0.1 µM, first compound 0.1 µM
[10] = second compound 0.316 µM, first compound 0.00316 µM
[11] = second compound 0.316 µM, first compound 0.01 µM
[12] = second compound 0.316 µM, first compound 0.0316 µM
[13] = second compound 0.316 µM, first compound 0.1 µM
[14] = second compound 1 µM, first compound 0.00316 µM
[15] = second compound 1 µM, first compound 0.01 µM
[16] = second compound 1 µM, first compound 0.0316 µM
[17] = second compound 1 µM, first compound 0.1 µM
[18] = second compound 3.16 µM, first compound 0.00316 µM
[19] = second compound 3.16 µM, first compound 0.01 µM
[20] = second compound 3.16 µM, first compound 0.0316 µM
[21] = second compound 3.16 µM, first compound 0.1 µM
[22] = second compound 10 µM, first compound 0.00316 µM
[23] = second compound 10 µM, first compound 0.01 µM
[24] = second compound 10 µM, first compound 0.0316 µM
[25] = second compound 10 µM, first compound 0.1 µM

Structure (SMILES) | IC50 [1] [nM] | IC50 [2] [nM] | IC50 [3] [nM] | IC50 [4] [nM] | IC50 [5] [nM] | viability, T/C [6] [%] | viability, T/C [7] [%] | viability, T/C [8] [%] | viability, T/C [9] [%] | viability, T/C [10] [%] | viability, T/C [11] [%] | viability, T/C [12] [%] | viability, T/C [13] [%] | viability, T/C [14] [%] | viability, T/C [15] [%] | viability, T/C [16] [%] | viability, T/C [17] [%] | viability, T/C [18] [%] | viability, T/C [19] [%] | viability, T/C [20] [%] | other results
CC(C)CC(NC(=O)C(Cc1ccccc1)NC(=O)c1cnccn1)B(O)O (configuration not stated) | – | – | – | – | – | – | – | – | – | – | – | – | – | – | – | – | – | – | – | – | viability, T/C (compound 0.000949 µM): 103% and 105% and 98.6%; viability, T/C (compound 0.003 µM): 106% and 99.9% and 58.5%; viability, T/C (compound 0.00949 µM): 6.74% and 11.6% and 2.52%; viability, T/C (compound 0.03 µM): 1.23% and 2.41% and 0.68%; viability, T/C (compound 0.0949 µM): 0.52% and 1.47% and 1.32%; viability, T/C (compound 0.3 µM): 0.53% and 0.64% and 0.32%; IC50 (curve of compound): 5.7 nM and 5.75 nM and 3.57 nM
Cn1ncnc1C1c2n[nH]c(=O)c3cc(F)cc(c23)NC1c1ccc(F)cc1 (configuration not stated) + Cc1cncc(-c2nc(NCCc3c[nH]c4ccccc34)c3ncn(C(C)C)c3n2)c1 | > 100 | > 100 | > 100 | > 100 | < 0.316 | 96.6 | 89 | 87 | 94.1 | 92.9 | 92.3 | 95.2 | 92.3 | 91.2 | 84.4 | 85.5 | 89.8 | 65 | 70.1 | 59.8 | viability, T/C (second compound 0.1 µM, first compound 0.000316 µM): 96.5%; viability, T/C (second compound 0.1 µM, first compound 0.001 µM): 96.6%; viability, T/C (second compound 0.316 µM, first compound 0.000316 µM): 97.1%; viability, T/C (second compound 0.316 µM, first compound 0.001 µM): 99.2%; viability, T/C (second compound 1 µM, first compound 0.000316 µM): 88.4%; viability, T/C (second compound 1 µM, first compound 0.001 µM): 98.9%; viability, T/C (second compound 3.16 µM, first compound 0.000316 µM): 60.6%; viability, T/C (second compound 3.16 µM, first compound 0.001 µM): 63.6%; viability, T/C [21]: 67.8%; viability, T/C (second compound 10 µM, first compound 0.000316 µM): 5.06%; viability, T/C (second compound 10 µM, first compound 0.001 µM): 6.23%; viability, T/C [22]: 6.28%; viability, T/C [23]: 7.11%; viability, T/C [24]: 6.12%; viability, T/C [25]: 8.13%
CC1COCCN1c1cc(-c2ccnn2C)c2ccnc(-c3ccn[nH]3)c2n1 (configuration not stated) + Cc1cncc(-c2nc(NCCc3c[nH]c4ccccc34)c3ncn(C(C)C)c3n2)c1 | 111 | 129 | 105 | 24.4 | < 3.16 | 94.3 | 102 | 90.6 | 52.5 | 98.5 | 103 | 89 | 57.4 | 91.3 | 96.8 | 81.5 | 52.2 | 49.4 | 50.1 | 51.4 | viability, T/C (second compound 0.1 µM, first compound 0.316 µM): 24.5%; viability, T/C (second compound 0.1 µM, first compound 1 µM): 19.4%; viability, T/C (second compound 0.316 µM, first compound 0.316 µM): 26%; viability, T/C (second compound 0.316 µM, first compound 1 µM): 20.5%; viability, T/C (second compound 1 µM, first compound 0.316 µM): 23.5%; viability, T/C (second compound 1 µM, first compound 1 µM): 21.4%; viability, T/C [21]: 41.2%; viability, T/C (second compound 3.16 µM, first compound 0.316 µM): 22.8%; viability, T/C (second compound 3.16 µM, first compound 1 µM): 19.5%; viability, T/C [22]: 3.71%; viability, T/C [23]: 4.4%; viability, T/C [24]: 6.04%; viability, T/C [25]: 3.64%; viability, T/C (second compound 10 µM, first compound 0.316 µM): 4.9%; viability, T/C (second compound 10 µM, first compound 1 µM): 10.9%
